Measurements reported in publication PMC7216583 (Parasites & Vectors, 2020).
Counter-ions that a name gives are not always drawn. Like-named read-outs stand apart in the source and are kept apart here.

Legend:
[1] = tested on: HSP90; conditions: ref library vendor description, cited from earlier work
[2] = tested on: Toxoplasma gondii RH-2F tachyzoites; assay: microbe, parasite or virus in culture; conditions: 72 h
[3] = tested on: Ret; set-up: method as in library vendor description; conditions: ref library vendor description; cited from earlier work
[4] = in vitro; conditions: human; for viability at 72 h: Host viability (%) mean
[5] = tested on: Aurora C; set-up: method as in library vendor description; conditions: ref library vendor description; cited from earlier work
[6] = tested on: Aurora C; set-up: method as in S-inhibitor catalog; conditions: vendor brief description; ref S-inhibitor catalog; cited from earlier work
[7] = tested on: Aurora B; set-up: method as in S-inhibitor catalog; conditions: vendor brief description; ref S-inhibitor catalog; cited from earlier work
[8] = tested on: Flt4; set-up: method as in library vendor description; conditions: ref library vendor description; cited from earlier work
[9] = tested on: PDGFRβ; set-up: method as in library vendor description; conditions: ref library vendor description; cited from earlier work
[10] = tested on: mTOR; set-up: method as in library vendor description; conditions: ref library vendor description; cited from earlier work
[11] = tested on: c-Kit; set-up: method as in library vendor description; conditions: ref library vendor description; cited from earlier work
[12] = tested on: VEGFR1; set-up: method as in library vendor description; conditions: ref library vendor description; cited from earlier work
[13] = tested on: CCR5; conditions: ref S-inhibitor, cited from earlier work
[14] = tested on: PDGFRβ; set-up: method as in S-inhibitor; conditions: ref S-inhibitor; cited from earlier work
[15] = tested on: Flt1; set-up: method as in library vendor description; conditions: ref library vendor description; cited from earlier work
[16] = tested on: VEGFR-2; set-up: method as in vendor brief description; conditions: ref vendor brief description; cited from earlier work
[17] = tested on: HDAC; set-up: method as in S-inhibitor; conditions: ref S-inhibitor; cited from earlier work
[18] = tested on: VEGFR2; set-up: method as in library vendor description; conditions: ref library vendor description; cited from earlier work
[19] = tested on: VEGFR3; set-up: method as in library vendor description; conditions: ref library vendor description; cited from earlier work
[20] = tested on: PDK-1; set-up: method as in library vendor description; conditions: ref library vendor description, cited from earlier work
[21] = tested on: JAK2; set-up: method as in S-inhibitor catalog; conditions: vendor brief description; ref S-inhibitor catalog; cited from earlier work
[22] = tested on: mTOR; set-up: method as in S-inhibitor catalog; conditions: vendor brief description; ref S-inhibitor catalog; cited from earlier work
[23] = tested on: Toxoplasma gondii RH-2F tachyzoites
[24] = tested on: chymotrypsin-like proteolytic (β5) site of the 20S proteasome; set-up: method as in S-inhibitor; conditions: ref S-inhibitor; cited from earlier work
[25] = tested on: human foreskin fibroblasts (HFFs); conditions: preliminary screen of compound library; mean
[26] = tested on: S6K1; set-up: method as in S-inhibitor; conditions: ref S-inhibitor; cited from earlier work
[27] = tested on: FGFR1; set-up: method as in library vendor description; conditions: ref library vendor description; cited from earlier work
[28] = read-out: Parasite inhibition (%) mean, preliminary screen, mean
[29] = read-out: Parasite inhibition (%) mean, preliminary screen of compound library, mean

Compound: COc1c(C)cnc(Cn2cnc3c(Cl)nc(N)nc32)c1C [BIIB021]
- inhibition of growth at 5 µM [2, 28]: 3.5%

Compound: CO[C@@H](C(=O)N1Cc2n[nH]c(NC(=O)c3ccc(N4CCN(C)CC4)cc3)c2C1)c1ccccc1 [Danusertib (PHA-739358)]
- IC50 [3]: 31 nM
- viability at 72 h [4]: 78.8%
- inhibition of growth at 5 µM [2, 28]: 77.5%
- IC50 [5]: 61 nM

Compound: Cc1cc(CN2CCN(c3c(Br)cnc4[nH]c(-c5ccc(N6CCN(C)CC6)cc5)nc34)CC2)no1 [CCT137690]
- viability at 72 h [4]: 78.6%
- IC50 [6]: 19 nM
- inhibition of growth at 5 µM [2, 29]: 86.1%
- IC50 [7]: 25 nM

Compound: Cc1cc(Nc2cc(N3CCN(C)CC3)nc(/C=C/c3ccccc3)n2)n[nH]1 [ENMD-2076]
- viability at 72 h [4]: 66.6%
- inhibition of growth at 5 µM [2, 28]: 74.7%
- IC50 [8]: 15.9 nM

Compound: CCN(CC)CCNC(=O)c1c(C)[nH]c(/C=C2\C(=O)Nc3ccc(F)cc32)c1C [Sunitinib Malate (Sutent)]
- inhibition of growth at 5 µM [2, 28]: 7.5%

Compound: CO[C@H]1C[C@H]2CC[C@@H](C)[C@@](O)(O2)C(=O)C(=O)N2CCCC[C@H]2C(=O)O[C@H]([C@H](C)C[C@@H]2CC[C@H](OC(=O)C(C)(CO)CO)[C@H](OC)C2)CC(=O)[C@H](C)/C=C(\C)[C@@H](O)[C@@H](OC)C(=O)[C@H](C)C[C@H](C)/C=C/C=C/C=C/1C [Temsirolimus (Torisel)]
- inhibition of growth at 5 µM [2, 28]: 22.4%
- IC50 [10]: 1760 nM

Compound: CNC(=O)c1cc(Oc2ccc(NC(=O)Nc3ccc(Cl)c(C(F)(F)F)c3)c(F)c2)ccn1 [Regorafenib (BAY 73-4506)]
- IC50 [11]: 7 nM
- IC50 [3]: 1.5 nM
- viability at 72 h [4]: 68.2%
- inhibition of growth at 5 µM [2, 28]: 76.7%

Compound: Maraviroc
- IC50 ([13]; read-out: IC50, CCR5, MIP-1α, MIP-1α): 3.3 nM
- IC50 ([13]; read-out: IC50, CCR5, MIP-1β, MIP-1β): 7.2 nM
- IC50 ([13]; read-out: IC50, CCR5, RANTES, RANTES): 5.2 nM

Compound: COCCOc1ccc2c(c1)ncn2-c1ccc2cccc(N3CCC(N)CC3)c2n1 [CP 673451]
- IC50 [14]: 1 nM
- inhibition of growth at 5 µM [2, 28]: -13.8%

Compound: Clc1ccc(Nc2nnc(Cc3ccncc3)c3ccccc23)cc1 [Vatalanib 2HCl (PTK787)]
- IC50 [11]: 730 nM
- inhibition of growth at 5 µM [2, 28]: -6.6%

Compound: CN1CCN(C2CCN(C(=O)Nc3cc(Oc4ccc(NC(=O)C5(C(=O)Nc6ccc(F)cc6)CC5)c(F)c4)ccn3)CC2)CC1 [Golvatinib (E7050)]
- viability at 72 h [4]: 78.3%
- inhibition of growth at 5 µM [2, 29]: 76.8%
- IC50 [16]: 16 nM

Compound: O=C(Nc1cccc(Cl)c1)Nc1ncc(CCNc2ncnc3ccsc23)s1 [SNS-314 Mesylate]
- viability at 72 h [4]: 32.9%
- inhibition of growth at 5 µM [2, 28]: 79.4%
- IC50 [5]: 3.4 nM

Compound: Cc1csc(-c2nnc(Nc3ccc(Oc4ncccc4-c4ccnc(N)n4)cc3)c3ccccc23)c1 [AMG 900]
- viability at 72 h [4]: 33.6%
- IC50 [6]: 1 nM
- inhibition of growth at 5 µM [2, 29]: 85.9%
- IC50 [7]: 4 nM

Compound: CCS(=O)(=O)c1cccc(-c2cc(C(=O)NC3CCN(C)CC3)c(C)c3[nH]c4ncc(C)cc4c23)c1 [TAK-901]
- viability at 72 h [4]: 52.7%
- inhibition of growth at 5 µM [2, 29]: 77.8%
- IC50 [7]: 15 nM

Compound: Cc1cc(F)c(Nc2ncnc3cc(OCc4ccccc4)ccc23)cc1O [ZM 323881 HCl, reference compound]
- viability at 72 h, 5 µM ([4]; Host viability (%) Mean ± SD): 85.5 ± 5.4%
- viability at 72 h [4]: 85.5%
- inhibition at 5 µM ([2]; read-out: Parasite inhibition (%) Mean ± SD): 79.9 ± 1.4%
- IC50 [16]: < 2 nM

Compound: CO[C@H]1C[C@H]2CC[C@@H](C)[C@@](O)(O2)C(=O)C(=O)N2CCCC[C@H]2C(=O)O[C@H]([C@H](C)C[C@@H]2CC[C@H](OP(C)(C)=O)[C@H](OC)C2)CC(=O)[C@H](C)/C=C(\C)[C@@H](O)[C@@H](OC)C(=O)[C@H](C)C[C@H](C)/C=C/C=C/C=C/1C [Deforolimus (Ridaforolimus)]
- inhibition of growth at 5 µM [2, 28]: 36.8%
- IC50 [10]: 0.2 nM

Compound: CCCCc1nc2cc(/C=C/C(=O)NO)ccc2n1CCN(CC)CC [SB939 (Pracinostat)]
- inhibition of growth at 5 µM [2, 28]: 34.6%
- IC50 [17]: 40 to 140 nM

Compound: COc1cc2nccc(Oc3ccc(NC(=O)NC4CC4)c(Cl)c3)c2cc1C(N)=O [E7080 (Lenvatinib)]
- viability at 72 h [4]: 52.1%
- IC50 [18]: 4 nM
- inhibition of growth at 5 µM [2, 28]: 84.1%
- IC50 [19]: 5.2 nM

Compound: CCn1cc(-c2ccnc3[nH]c(-c4cccc(CN(C)C)c4)cc23)c(-c2ccc(NC(=O)N(C)C)cc2)n1 [GSK1070916]
- viability at 72 h [4]: 67.7%
- IC50 [6]: 6.5 nM
- inhibition of growth at 5 µM [2, 29]: 79.9%

Compound: NCC(=O)Nc1ccc(-n2nc(C(F)(F)F)cc2-c2ccc3c(ccc4ccccc43)c2)cc1 [OSU-03012 (AR-12)]
- inhibition of growth at 5 µM [2, 28]: 5.4%
- IC50 ([20]; recombinant PDK-1, read-out: IC50 recombinant PDK-1): 5000 nM

Compound: Cc1cc(Nc2nc(N[C@@H](C)c3ccc(F)cc3)c(C#N)cc2F)[nH]n1 [AZ 960]
- inhibition of growth at 5 µM [2, 28]: -2.1%
- IC50 [21]: < 3 nM
- Ki [21]: 0.45 nM

Compound: c1cncc(CN2CCC(n3ncc4c(N5CCOCC5)nc(-c5ccc6[nH]ccc6c5)nc43)CC2)c1 [WAY-600]
- IC50 [22]: 9 nM
- inhibition of growth at 5 µM [2, 29]: 35.5%

Compound: O=C(Nc1cccc(Nc2ncc(Br)c(NCCc3cnc[nH]3)n2)c1)N1CCCC1 [BX-912]
- inhibition of growth at 5 µM [2, 28]: 1.4%
- IC50 ([20]; read-out: IC50 PDK-1): 12 nM

Compound: CO[C@H]1/C=C\C=C(\C)C(=O)NC2=CC(=O)C(NCCN(C)C)=C(C[C@@H](C)C[C@H](OC)[C@H](O)[C@@H](C)/C=C(\C)[C@@H]1OC(N)=O)C2=O [17-DMAG HCl (Alvespimycin)]
- IC50 ([1]; read-out: IC50 HSP90): 62 nM
- inhibition of growth at 5 µM [2, 28]: 4.3%

Compound: MLN9708
- Parasite inhibition (%) mean ([23]; preliminary screen, mean): 17.5%
- IC50 [24]: 3.4 nM
- Ki [24]: 0.93 nM

Compound: Cc1c(CN2CCN(C(=O)[C@H](C)O)CC2)sc2c(N3CCOCC3)nc(-c3cnc(N)nc3)nc12 [GDC-0980 (RG7422)]
- Ki [22]: 17 nM
- inhibition of growth at 5 µM [2, 29]: 33.7%

Compound: AT101
- Parasite inhibition (%) mean [23]: 70.4%
- Host viability (%) mean [25]: 68.8%

Compound: Cn1cc(/C=C/C(=O)c2cccc(F)c2)cc1/C=C/C(=O)NO [MC1568]
- inhibition of growth at 5 µM [2, 28]: 35.4%
- IC50 [17]: 220 nM

Compound: CN1CCN(c2cccc(Nc3nc4c(-c5ccc(S(C)(=O)=O)cc5)cccn4n3)c2)CC1 [CEP33779]
- inhibition of growth at 5 µM [2, 29]: 7.8%
- IC50 [21]: 1.8 nM

Compound: CCc1cncnc1N1CCN(Cc2nc3cc(C(F)(F)F)ccc3[nH]2)CC1 [PF-4708671]
- inhibition of growth at 5 µM [2, 28]: 60.6%
- IC50 [26]: 160 nM
- Ki [26]: 20 nM

Compound: COc1cc2c(Oc3ccc4[nH]c(C)cc4c3F)ncnc2cc1OCCCN1CCCC1 [Cediranib (AZD2171)]
- IC50 [18]: 0.5 nM
- inhibition of growth at 5 µM [2, 28]: 0.4%
- IC50 [8]: ≤ 3 nM
- IC50 [15]: 5 nM

Compound: CCN(CC)CCCCNc1ncc2cc(-c3cc(OC)cc(OC)c3)c(NC(=O)NC(C)(C)C)nc2n1 [PD173074]
- viability at 72 h [4]: 58.8%
- IC50 [18]: 100 to 200 nM
- inhibition of growth at 5 µM [2, 28]: 76.8%

Compound: CCN(CC)Cc1ccc2cc(COC(=O)Nc3ccc(C(=O)NO)cc3)ccc2c1 [ITF2357 (Givinostat)]
- inhibition of growth at 5 µM [2, 28]: 62.2%
- IC50 [17]: 7.5 to 16 nM

Compound: CN1CCN(c2ccc3nc(-c4c(N)c5c(F)cccc5[nH]c4=O)[nH]c3c2)CC1 [Dovitinib (TKI-258)]
- IC50 [9]: 27 nM
- inhibition of growth at 5 µM ([2]; read-out: Parasite inhibition (%) mean): -12.9%

Compound: COC(=O)Nc1ccc(-c2nc(N3CCOCC3)c3cnn(C4CCN(C(=O)OC)CC4)c3n2)cc1 [WYE-354]
- inhibition of growth at 5 µM [2, 28]: 43.5%
- IC50 [10]: 5 nM

Compound: Cc1ccc(NC(=O)c2ccc(CN3CCN(C)CC3)cc2)cc1Nc1nc(-c2cccnc2)cs1 [Masitinib (AB1010)]
- inhibition of growth at 5 µM [2, 28]: 10.5%

Compound: CC(C)C[C@H](NC(=O)CNC(=O)c1cc(Cl)ccc1Cl)B(O)O [MLN2238]
- inhibition of growth at 5 µM [2, 28]: 13.3%
- IC50 [24]: 3.4 nM
- Ki [24]: 0.93 nM
